We go through three compounds from US5792831A, “Analogues of magainin peptides containing D-amino acids” (priority 1994, dated 1998).

Square brackets hold non-standard residues; d marks the D form. Ends that are not written are not given here. Peptide text beside a SMILES is read from it.

Holding throughout (type): cell-based
Test [1] concerns WM278 (primary melanoma). The test can be described thus: Melanoma growth reduction, 3H-thymidine incorporation (Example 4). The conditions noted are these: 2% tumor medium. How it is done: (§1) Melanoma cell lines WM-239-A (metastatic melanoma), WM278 (primary melanoma), WM793 (primary melanoma) and WM1158 (metastatic melanoma) were seeded in 24-well plates at a concentration of 7.5×10^4 cells/ml containing 2% tumor medium.
(§2) Peptides (SEQ ID NO:6) and D-(SEQ ID NO:6), in which each amino acid residue is a D-amino residue or a glycine residue, were frozen at -20° C. in […] aliquots at a concentration of 25 mg/ml. Each peptide was then dissolved in sterile distilled water at a dilution of 1:1,000 or 1:5,000 to provide peptide concentrations of 25 μg/ml or 5 μg/ml, respectively. The peptides at the 25 μg/ml or 5 μg/ml concentrations were then added to the plates containing the melanoma cells. The amount of ^3 H-thymidine incorporation for each well was taken on days 1, 3, and 7.

For test [2], the system named is WM-239-A (metastatic melanoma). Described as above. The conditions noted are these: 2% tumor medium. On the procedure:
as §1, §2

Test [3] deals with WM793 (primary melanoma). The description is as above. The settings on record: 2% tumor medium. On the procedure: as §1, §2
For test [4], the system named is WM1158 (metastatic melanoma). The test is described as above. The conditions noted are these: 2% tumor medium. On the procedure: as §1, §2
In test [5] the test system is melanoma cell line WM793. The test can be described thus: Melanoma growth reduction (Example 5). The conditions noted are these: 2% tumor media. On the procedure:
as §1, §2
(§3) Peptides (SEQ ID NO:10) and D-(SEQ ID NO:10), in which each amino acid is a D-amino acid residue, are tested for % growth reduction of melanoma cell lines WM852 (grown in 2% tumor media or PF media), WM983A (grown in 2% tumor media or PF media), WM793 (grown in 2% tumor media), and WM1985 (grown in PF media) according to the procedure of Example 4, except that only a concentration of 25 μg/ml was employed for (SEQ ID NO:10), and concentrations of 1.0, 2.5, 5.0, 10.0, and 25.0 μg/ml were employed for D-(SEQ ID NO:10).

The test system of test [6] is melanoma cell line WM1985. The test can be described thus: Melanoma growth reduction (Example 5). The conditions noted are these: PF media. How it is done:
as §1, §2, §3

In test [7] the test system is melanoma cell line WM852. Put plainly: Melanoma growth reduction (Example 5). The conditions noted are these: for % Growth Reduction (7 days) WM852-2%: 2% tumor media; for % Growth Reduction (7 days) WM852-PF: PF media. How it is done:
as §1, §2, §3

Test [8] deals with melanoma cell line WM983A. Put plainly: Melanoma growth reduction (Example 5). The conditions noted are these: for % Growth Reduction (7 days) WM-983A-2%: 2% tumor media; for % Growth Reduction (7 days) WM983A-PF: PF media. How it is done: as §1, §2, §3

On to “(SEQ ID NO:6): peptide of SEQ ID NO:6, comparator not marked D; possibly the same as (SEQ ID NO:6)-NH2 (GIGKFLKSAKKFGKAFVKILNS; not fully specified) [reference compound]”, for which the “% Growth Reduction (7 days) WM-278” value came out at 0% in test [1] (dose 5 μg/ml) and 96.0% in test [1] (dose 25 μg/ml). Moreover, the entries for the “% Growth Reduction (7 days) WM239-A” value in test [2] (dose 5 μg/ml) and in test [2] (dose 25 μg/ml) were 0% and 95.8%, respectively. Besides, the “% Growth Reduction (7 days) WM793” value came to 11.6% in test [3] (dose 5 μg/ml) and 98.0% in test [3] (dose 25 μg/ml). The “% Growth Reduction (7 days) WM1158” value in test [4] (dose 5 μg/ml) turned out to be 0%; in test [4] (dose 25 μg/ml), 98.5%.
In the case of `CC(C)C[C@@H](NC(=O)[C@@H](CCCCN)NC(=O)[C@@H](CCCCN)NC(=O)[C@@H](CC(C)C)NC(=O)[C@@H](CC(C)C)NC(=O)[C@@H](CCCCN)NC(=O)[C@@H](CCCCN)NC(=O)[C@@H](CC(C)C)NC(=O)[C@@H](CCCCN)NC(=O)[C@@H](CCCCN)NC(=O)[C@@H](CC(C)C)NC(=O)[C@@H](CC(C)C)NC(=O)[C@@H](CCCCN)NC(=O)[C@H](N)CCCCN)C(N)=O` [D-(SEQ ID NO:10)] (H-[dK][dK][dL][dL][dK][dK][dL][dK][dK][dL][dL][dK][dK][dL]-NH2), the “% Growth Reduction (7 days) WM793-2%” value in test [5] (dose 2.5 μg/ml) amounted to 18.2%; in test [5] (dose 5.0 μg/ml) it was 0%; in test [5] (dose 10.0 μg/ml), 12.3%; in test [5] (dose 25 μg/ml), 84.9%. Besides, the “% Growth Reduction (7 days) WM1985-PF” value in test [6] (dose 1.0 μg/ml) turned out to be 5.5%; in test [6] (dose 2.5 μg/ml) it was 23.6%; in test [6] (dose 5.0 μg/ml) it was 52.1%; in test [6] (dose 10.0 μg/ml), 84.3%; in test [6] (dose 25 μg/ml), 92.6%. Moreover, the “% Growth Reduction (7 days) WM852-2%” value in test [7] (dose 1.0 μg/ml) was 3.0%; in test [7] (dose 2.5 μg/ml) it was 5.4%; in test [7] (dose 5.0 μg/ml) it was 8.8%; in test [7] (dose 10.0 μg/ml), 16.2%; in test [7] (dose 25 μg/ml) it was 84.7%. The “% Growth Reduction (7 days) WM852-PF” value in test [7] (dose 1.0 μg/ml) stood at 2.9%; in test [7] (dose 2.5 μg/ml), 22.9%; in test [7] (dose 5.0 μg/ml) it was 32.4%; in test [7] (dose 10.0 μg/ml) it was 80.6%; in test [7] (dose 25 μg/ml) it was 91.1%. In addition, the “% Growth Reduction (7 days) WM-983A-2%” value in test [8] (dose 1.0 μg/ml) was found to be 0%; in test [8] (dose 2.5 μg/ml), 0%; in test [8] (dose 5.0 μg/ml), 0%; in test [8] (dose 10.0 μg/ml), 13.8%; in test [8] (dose 25 μg/ml), 71.3%. Further, the “% Growth Reduction (7 days) WM983A-PF” value in test [8] (dose 1.0 μg/ml) was determined as 3.3%; in test [8] (dose 2.5 μg/ml), 13.9%; in test [8] (dose 5.0 μg/ml) it was 29.8%; in test [8] (dose 10.0 μg/ml), 84.9%; in test [8] (dose 25 μg/ml) it was 90.0%.
Take “(SEQ ID NO:10): peptide of SEQ ID NO:10, comparator not marked D; possibly the same as (SEQ ID NO:10)-NH2 (KKLLKKLKKLLKKL; not fully specified) [reference compound]”: in test [5] (dose 25 μg/ml), the “% Growth Reduction (7 days) WM793-2%” value stood at 8.3%. For the same compound, in test [6] (dose 25 μg/ml), the “% Growth Reduction (7 days) WM1985-PF” value is recorded as 43.0%. Besides, in test [7] (dose 25 μg/ml), the “% Growth Reduction (7 days) WM852-2%” value is given as 0% and the “% Growth Reduction (7 days) WM852-PF” value amounted to 54.0%. Moreover, in test [8] (dose 25 μg/ml), the “% Growth Reduction (7 days) WM-983A-2%” value is recorded as 0% and the “% Growth Reduction (7 days) WM983A-PF” value turned out to be 60.5%.
